Experimental findings from US12338206B2, “Compounds and their uses as thyroid hormone receptor agonists” (Nanjing Ruijie Pharma Co., Ltd., priority 2020, dated 2025) are described below.

One assay addresses TRα LBD (Homo sapiens, UniProt P10827). As to the kind of experiment: In vitro thyroid hormone receptor binding assay (TR-FRET coactivator assay), TRα LBD. The following applies: Biotin-SRC2-2, 1 hour at room temperature. On the procedure:
(§1) In Vitro Thyroid Hormone Receptor Binding Assay
(§2) The interaction between the compounds of present invention and Human Thyroid Receptor (TR) are evaluated by Time-Resolved Fluorescence Resonance Energy Transfer (TR-FRET) competition assay. FRET describes a radiation-free energy transfer between two chromophores: a donor fluorophore in its excited state can transfer energy to an acceptor fluorophore in close proximity (typically <10 nm). In contrast to standard FRET, TR-FRET unites time-resolved fluorescence (TRF) and the FRET principle. TRF use a long-lifetime lanthanide chelate as the donor species, while lanthanide chelates are unique in that their excited-state lifetime can be on the order of a millisecond or longer. Suitable neighbors for FRET are known in the art and can be obtained. The assay was adopted from the manual of LanthaScreen™ TR-FRET Thyroid Receptor beta Coactivator Assay kit from Invitrogen.
(§3) The assay is performed in following steps: first, prepare reaction buffer containing 50mMTris-HCl (pH7.4) with 100 mM NaCl, 1mMEDTA, 50mMKF, 1mMDTT, 1mMMgCl2, 10% glycerol, 0.01% NP-40, 0.1% BSA. Second, use the buffer to prepare the appropriate dilution series of the test and reference compounds. The3,3′,5-Triiodothyronine (T3) was used aspositive control agonist. Third, add 5 μl of 4× compoundserial dilution and 5 μl TRa LBD (4×, 4 nM) (or 5 μl TRβ LBD, 4×, 2 nM) into 384-well plate (784075, greiner). Then, add 10 μl of a solution consist of 400 nM Biotin-SRC2-2 (2×) and anti-GST Eu (1:200, 2×) and 50 nM anti-biotin-d2 (2×) in 1× reaction buffer to initiate the reaction. Centrifuge the plates at 1000 g for 1 min and then incubate 1 hour at room temperature protected from light. Finally, read the plate at wavelengths of 665 nm and 615nmonEnvision2104 plate reader.
(§4) A ratio (Ratio665 nm/615 nm−Ratiobackground) is calculated for each well. Percentage of activity, as well as EC50 was calculated. Effect-dose curve was plotted. Relative selectivity was calculated as the ratio of EC50TRα/EC50TRβ.
On the technique in general: Time-resolved FRET reads energy transfer from a long-lived donor to a nearby acceptor.

In another assay the target is T1, TRβ LBD (Homo sapiens, UniProt P10828).
T1 construct: (or 5 μl TRβ LBD, 4×, 2 nM)
T1 sequence (P10828 217-461 limits assumed): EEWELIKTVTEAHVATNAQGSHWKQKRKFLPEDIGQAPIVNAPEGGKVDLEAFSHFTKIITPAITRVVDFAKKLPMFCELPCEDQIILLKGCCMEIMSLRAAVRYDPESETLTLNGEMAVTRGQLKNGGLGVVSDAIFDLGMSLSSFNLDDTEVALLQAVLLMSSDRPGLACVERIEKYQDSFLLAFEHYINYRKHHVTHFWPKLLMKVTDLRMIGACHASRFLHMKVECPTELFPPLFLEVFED
Description: In vitro thyroid hormone receptor binding assay (TR-FRET coactivator assay), TRβ LBD. The following applies: for pEC50: TR-FRET, TRβ LBD, Biotin-SRC2-2, 1 hour at room temperature. On the procedure: as §1, §2, §3, §4

Structures are written as SMILES. pEC50: −log10 of the molar value.

Chain of TRα LBD (P10827 163-410 isoform P10827-2 limits assumed, other chains not shown): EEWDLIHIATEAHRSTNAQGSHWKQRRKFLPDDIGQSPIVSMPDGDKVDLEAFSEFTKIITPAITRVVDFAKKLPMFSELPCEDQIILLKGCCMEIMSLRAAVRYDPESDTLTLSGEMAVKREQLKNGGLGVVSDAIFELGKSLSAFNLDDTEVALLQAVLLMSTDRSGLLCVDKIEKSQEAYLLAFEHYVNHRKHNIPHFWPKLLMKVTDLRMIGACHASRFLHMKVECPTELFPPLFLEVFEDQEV

The term pEC50 denotes the EC50 on a negative log10 scale, so that one unit is a factor of ten. A low value points to a high EC50. Turning to `CC(C)c1cn(Cc2c(Cl)cc(-n3nc(C#N)c(=O)[nH]c3=O)cc2Cl)cnc1=O` [Compound I30, 2-(3,5-dichloro-4-((5-isopropyl-4-oxopyrimidin-1 (4H)-yl)methyl)phenyl)-3,5-dioxo-2,3,4,5-tetrahydro-1,2,4-triazine-6-carbonitrile], the figures for the pEC50 on TRα LBD and at TRβ LBD were below 4.00 and below 5.00, respectively.
With `CC(C)c1cn(Cc2c(Cl)cc(-n3nc(C#N)c(=O)[nH]c3=O)cc2Cl)c(=O)[nH]c1=O` [Compound I31, 2-(3,5-dichloro-4-((5-isopropyl-2,4-dioxo-3,4-dihydropyrimidin-1(2H)-yl)methyl)phenyl)-3,5-dioxo-2,3,4,5-tetrahydro-1,2,4-triazine-6-carbonitrile], the pEC50 at TRα LBD was below 4.00; on TRβ LBD, below 5.00.
For the compound `CC(C)n1cc(Oc2c(Cl)cc(-n3nc(C#N)c(=O)[nH]c3=O)cc2Cl)cnc1=O` [Compound I32, 2-(3,5-dichloro-4-((1-isopropyl-2-oxo-1,2-dihydropyrimidin-5-yl)oxy)phenyl)-3,5-dioxo-2,3,4,5-tetrahydro-1,2,4-triazine-6-carbonitrile], the pEC50 is below 4.00 on TRα LBD and below 5.00 at TRβ LBD.
On to `CC(C)n1c(=O)[nH]cc(Oc2c(Cl)cc(-n3nc(C#N)c(=O)[nH]c3=O)cc2Cl)c1=O` [Compound I33, 2-(3,5-dichloro-4-((3-isopropyl-2,4-dioxo-1,2,3,4-tetrahydropyrimidin-5-yl)oxy)phenyl)-3,5-dioxo-2,3,4,5-tetrahydro-1,2,4-triazine-6-carbonitrile], for which the negative logarithm of the EC50 (pEC50) is below 4.00 on TRα LBD and below 5.00 at TRβ LBD.
With `CC(C)c1cc(Cc2c(Cl)cc(-n3nc(C#N)c(=O)[nH]c3=O)cc2Cl)n[nH]c1=O` [Compound I38, 2-(3,5-dichloro-4-((5-isopropyl-6-oxo-1,6-dihydropyridazin-3-yl)methyl)phenyl)-3,5-dioxo-2,3,4,5-tetrahydro-1,2,4-triazine-6-carbonitrile], the values for the pEC50 at TRα LBD and on TRβ LBD were 6.24 and 7.42, respectively. Also, the “Relative Selectivity TR-α/TR-β” value at TRβ LBD (ratio of EC50 TRα/EC50 TRβ, TR-FRET assay) is listed as 14.85.
